# Experimental data: publication PMC11672292, “Discovery of Balasubramide Derivative with Tissue‐Specific Anti‐Inflammatory Activity Against Acute Lung Injury by Targeting VDAC1” (Advanced Science, 2024)
# Read-outs that look alike come from different tables or passages of the source.
# What was measured:
# [1] = Pharmacokinetics and tissue distribution after single intravenous administration; type: in vivo, mouse; details: mice; for Vd: read-out: VdSS; for Kp: read-out: Tissues/plasma ratio
# Protocol: Pharmacokinetic studies were performed as previously described.^[ [63] ^] Briefly, ICR mice were fasted without water for 16 h before drug administration and allowed access to food and water freely after administration. After given a single intravenous administration of (+)3C‐20 (10 mg kg^−1), mice were anesthetized with isoflurane, and blood samples were collected through jugular vein at different time points (0, 0.083, 0.25, 0.5, 1, 2, 4, 6, 8, 24 h), as well as at different time points (0.5, 2, 6, 24 h) mice were euthanized and brain, heart, liver, spleen, lung, and kidney were collected. Blood samples were collected in tubes containing sodium heparin and centrifuged at 5000 rpm at 4 °C for 10 min to prepare plasma, tissues were cleaned in prechilled saline and homogenized to be tested, and all samples were stored at […]. LC‐MS/MS was performed to determine the concentrations of (+)3C‐20 in the plasma and tissues of the mice and to calculate the related pharmacokinetic parameters, which were then used to investigate the pharmacokinetic characteristics and tissue distribution of (+)3C‐20 in mice.
# [2] = tested on: BMDMs; test: Cytosolic mtDNA measurement (qPCR) in BMDMs; type: cell-based, mouse; details: 10 µM
# Protocol: BMDMs were stimulated and treated with 10 µM (+)3C‐20 as indicated. Cytosolic mtDNA collection was carried out as previously described.^[ [25] ^] Briefly, BMDMs were washed twice with PBS, harvested, and resuspended in 200 µL mitochondria isolation reagent (Beyotime, C3601) with protease and phosphatase inhibitor cocktail. Cell resuspension was triturated with a glass homogenizer and centrifuged at 11 000 × g for 10 min at 4 °C to pelleted down mitochondria and cell membrane, and the remaining supernatant contained the cytosolic mtDNA that were measured. After DNA purification from the supernatant with FastPure Cell DNA Isolation Mini Kit (DC102‐01, Vazyme, China) according to the manufacturer's instruction, qPCR was performed using specific mtDNA primers (D‐loop, D‐loop1, D‐loop2, D‐loop3).
# [3] = ICR, mouse, brain, iv, single i.v. 10 mg/kg, read-out: Concentration of (+)3C-20, Brain
# [4] = ICR, mouse, heart, iv, single i.v. 10 mg/kg, read-out: Concentration of (+)3C-20, Heart
# [5] = ICR, mouse, iv, single i.v. 10 mg/kg, Blood
# [6] = ICR, mouse, iv, single i.v. 10 mg/kg, Brain
# [7] = ICR, mouse, iv, single i.v. 10 mg/kg, Heart
# [8] = ICR, mouse, iv, single i.v. 10 mg/kg, Kidney
# [9] = ICR, mouse, iv, single i.v. 10 mg/kg, Liver
# [10] = ICR, mouse, iv, single i.v. 10 mg/kg, Lung
# [11] = ICR, mouse, iv, single i.v. 10 mg/kg, Plasma
# [12] = ICR, mouse, iv, single i.v. 10 mg/kg, Spleen
# [13] = ICR, mouse, kidney, iv, single i.v. 10 mg/kg, read-out: Concentration of (+)3C-20, Kidney
# [14] = ICR, mouse, liver, iv, single i.v. 10 mg/kg, read-out: Concentration of (+)3C-20, Liver
# [15] = ICR, mouse, lung, iv, single i.v. 10 mg/kg, read-out: Concentration of (+)3C-20, Lung
# [16] = ICR, mouse, spleen, iv, single i.v. 10 mg/kg, read-out: Concentration of (+)3C-20, Spleen
smiles,measurement,setting,value
O=C(CCc1ccc(C(F)(F)F)cc1)O[C@@H]1C(=O)NCCc2c([nH]c3ccccc23)[C@H]1c1ccc(C(F)(F)F)cc1 [(+)3C-20],concentration at 0.5 h,[1]; [3],518 ± 66 ng/g
same,concentration at 2 h,[1]; [3],317 ± 86.1 ng/g
same,concentration at 6 h,[1]; [3],113 ± 11.8 ng/g
same,concentration at 0.5 h,[1]; [4],4510 ± 630 ng/g
same,concentration at 2 h,[1]; [4],1270 ± 335 ng/g
same,concentration at 6 h,[1]; [4],123 ± 12.7 ng/g
same,half-life,"[1]; ICR, mouse, iv, i.v. 10 mg kg^−1, serum and plasma, read-out: average half-life (converted)",318 ± 18 min
same,AUC(0-inf),[1]; [5],3600 ng·h/mL
same,AUC(0-t),[1]; [5],3470 ng·h/mL
same,C0,[1]; [5],3950 ng/mL
same,Cmax,[1]; [5],2340 ng/mL
same,clearance,[1]; [5],46.4 mL/min/kg
same,k el,[1]; [5],3.36e-05 s⁻¹
same,Vd,[1]; [5],12.3 L/kg
same,half-life,"[1]; ICR, mouse, iv, single i.v. 10 mg/kg, Blood, read-out: t1/2 (converted)",343 min
same,AUC(0-inf),[1]; [6],3160 ng·h/mL
same,AUC(0-t),[1]; [6],2980 ng·h/mL
same,C0,[1]; [6],610 ng/mL
same,Cmax,[1]; [6],518 ng/mL
same,k el,[1]; [6],3.44e-05 s⁻¹
same,Kp,[1]; [6],0.699
same,half-life,"[1]; ICR, mouse, iv, single i.v. 10 mg/kg, Brain, read-out: t1/2 (converted)",334 min
same,AUC(0-inf),[1]; [7],10200 ng·h/mL
same,AUC(0-t),[1]; [7],9980 ng·h/mL
same,C0,[1]; [7],6890 ng/mL
same,Cmax,[1]; [7],4510 ng/mL
same,k el,[1]; [7],0.000178 s⁻¹
same,Kp,[1]; [7],2.34
same,half-life,"[1]; ICR, mouse, iv, single i.v. 10 mg/kg, Heart, read-out: t1/2 (converted)",64.8 min
same,AUC(0-inf),[1]; [8],3980 ng·h/mL
same,AUC(0-t),[1]; [8],3780 ng·h/mL
same,C0,[1]; [8],1960 ng/mL
same,Cmax,[1]; [8],1450 ng/mL
same,k el,[1]; [8],0.000134 s⁻¹
same,Kp,[1]; [8],0.885
same,half-life,"[1]; ICR, mouse, iv, single i.v. 10 mg/kg, Kidney, read-out: t1/2 (converted)",86.4 min
same,AUC(0-inf),[1]; [9],15500 ng·h/mL
same,AUC(0-t),[1]; [9],14900 ng·h/mL
same,C0,[1]; [9],6050 ng/mL
same,Cmax,[1]; [9],5010 ng/mL
same,k el,[1]; [9],0.000145 s⁻¹
same,Kp,[1]; [9],3.5
same,half-life,"[1]; ICR, mouse, iv, single i.v. 10 mg/kg, Liver, read-out: t1/2 (converted)",79.8 min
same,AUC(0-inf),[1]; [10],22200 ng·h/mL
same,AUC(0-t),[1]; [10],22100 ng·h/mL
same,C0,[1]; [10],11700 ng/mL
same,Cmax,[1]; [10],7780 ng/mL
same,k el,[1]; [10],5.39e-05 s⁻¹
same,Kp,[1]; [10],5.17
same,half-life,"[1]; ICR, mouse, iv, single i.v. 10 mg/kg, Lung, read-out: t1/2 (converted)",215 min
same,AUC(0-inf),[1]; [11],4770 ng·h/mL
same,AUC(0-t),[1]; [11],4700 ng·h/mL
same,C0,[1]; [11],6280 ng/mL
same,Cmax,[1]; [11],4010 ng/mL
same,clearance,[1]; [11],35.2 mL/min/kg
same,k el,[1]; [11],3.97e-05 s⁻¹
same,Vd,[1]; [11],6.1 L/kg
same,half-life,"[1]; ICR, mouse, iv, single i.v. 10 mg/kg, Plasma, read-out: t1/2 (converted)",293 min
same,AUC(0-inf),[1]; [12],9840 ng·h/mL
same,AUC(0-t),[1]; [12],9560 ng·h/mL
same,C0,[1]; [12],6800 ng/mL
same,Cmax,[1]; [12],4370 ng/mL
same,k el,[1]; [12],0.000161 s⁻¹
same,Kp,[1]; [12],2.24
same,half-life,"[1]; ICR, mouse, iv, single i.v. 10 mg/kg, Spleen, read-out: t1/2 (converted)",72 min
same,concentration at 0.5 h,[1]; [13],5010 ± 516 ng/g
same,concentration at 2 h,[1]; [13],2840 ± 692 ng/g
same,concentration at 6 h,[1]; [13],299 ± 25.1 ng/g
same,concentration at 0.5 h,[1]; [14],4370 ± 1010 ng/g
same,concentration at 2 h,[1]; [14],1160 ± 434 ng/g
same,concentration at 6 h,[1]; [14],159 ± 51.7 ng/g
same,concentration at 0.5 h,[1]; [15],7780 ± 525 ng/g
same,concentration at 2 h,[1]; [15],2300 ± 281 ng/g
same,concentration at 6 h,[1]; [15],440 ± 50.4 ng/g
same,concentration at 24 h,"[1]; ICR, mouse, lung, iv, single i.v. 10 mg/kg, 24 h, read-out: Concentration of (+)3C-20, Lung",23.8 ± 9.4 ng/g
same,concentration at 0.5 h,[1]; [16],1450 ± 79.6 ng/g
same,concentration at 2 h,[1]; [16],595 ± 192 ng/g
same,concentration at 6 h,[1]; [16],98.7 ± 60 ng/g
same,lung tissue/plasma ratio in various organs,[1]; i.v. 10 mg kg^−1,highest
same,AUMC0-inf,"[1]; single i.v. 10 mg/kg, Blood",15950.5 h·h·ng·mL^-1
same,AUMC0-t,"[1]; single i.v. 10 mg/kg, Blood",11638.5 h·h·ng·mL^-1
same,MRTIV,"[1]; single i.v. 10 mg/kg, Blood",4.425 h
same,Tissues/plasma ratio,"[1]; single i.v. 10 mg/kg, Blood",0.734
same,AUMC0-inf,"[1]; single i.v. 10 mg/kg, Brain",19922 h·h·ng·mL^-1
same,AUMC0-t,"[1]; single i.v. 10 mg/kg, Brain",14234 h·h·ng·mL^-1
same,MRTIV,"[1]; single i.v. 10 mg/kg, Brain",6.3 h
same,AUMC0-inf,"[1]; single i.v. 10 mg/kg, Heart",12176 h·h·ng·mL^-1
same,AUMC0-t,"[1]; single i.v. 10 mg/kg, Heart",10724 h·h·ng·mL^-1
same,MRTIV,"[1]; single i.v. 10 mg/kg, Heart",1.2 h
same,AUMC0-inf,"[1]; single i.v. 10 mg/kg, Kidney",6846 h·h·ng·mL^-1
same,AUMC0-t,"[1]; single i.v. 10 mg/kg, Kidney",5185 h·h·ng·mL^-1
same,MRTIV,"[1]; single i.v. 10 mg/kg, Kidney",1.72 h
same,AUMC0-inf,"[1]; single i.v. 10 mg/kg, Liver",26259 h·h·ng·mL^-1
same,AUMC0-t,"[1]; single i.v. 10 mg/kg, Liver",21734 h·h·ng·mL^-1
same,MRTIV,"[1]; single i.v. 10 mg/kg, Liver",1.69 h
same,AUMC0-inf,"[1]; single i.v. 10 mg/kg, Lung",54321 h·h·ng·mL^-1
same,AUMC0-t,"[1]; single i.v. 10 mg/kg, Lung",50741 h·h·ng·mL^-1
same,MRTIV,"[1]; single i.v. 10 mg/kg, Lung",2.45 h
same,AUMC0-inf,"[1]; single i.v. 10 mg/kg, Plasma",13980 h·h·ng·mL^-1
same,AUMC0-t,"[1]; single i.v. 10 mg/kg, Plasma",11982 h·h·ng·mL^-1
same,MRTIV,"[1]; single i.v. 10 mg/kg, Plasma",2.91 h
same,AUMC0-inf,"[1]; single i.v. 10 mg/kg, Spleen",12590 h·h·ng·mL^-1
same,AUMC0-t,"[1]; single i.v. 10 mg/kg, Spleen",10456 h·h·ng·mL^-1
same,MRTIV,"[1]; single i.v. 10 mg/kg, Spleen",1.28 h
same,increase in cytosolic mtDNA caused by LPS,[2],significantly inhibited
